Values of other authors in patent US11498743B2, “Cardboard container for active packaging of fresh fruit and vegetables and production method of same” (Universidad Politecnica de Cartagena, priority 2016, dated 2022).

Going from `OC[C@H]1O[C@@H]2O[C@H]3[C@H](O)[C@@H](O)[C@@H](O[C@H]4[C@H](O)[C@@H](O)[C@@H](O[C@H]5[C@H](O)[C@@H](O)[C@@H](O[C@H]6[C@H](O)[C@@H](O)[C@@H](O[C@H]7[C@H](O)[C@@H](O)[C@@H](O[C@H]8[C@H](O)[C@@H](O)[C@@H](O[C@H]9[C@H](O)[C@@H](O)[C@@H](O[C@H]1[C@H](O)[C@H]2O)O[C@@H]9CO)O[C@@H]8CO)O[C@@H]7CO)O[C@@H]6CO)O[C@@H]5CO)O[C@@H]4CO)O[C@@H]3CO` [γ-CD, gamma-cyclodextrin] to `OC[C@H]1O[C@@H]2O[C@H]3[C@H](O)[C@@H](O)[C@@H](O[C@H]4[C@H](O)[C@@H](O)[C@@H](O[C@H]5[C@H](O)[C@@H](O)[C@@H](O[C@H]6[C@H](O)[C@@H](O)[C@@H](O[C@H]7[C@H](O)[C@@H](O)[C@@H](O[C@H]8[C@H](O)[C@@H](O)[C@@H](O[C@H]1[C@H](O)[C@H]2O)O[C@@H]8CO)O[C@@H]7CO)O[C@@H]6CO)O[C@@H]5CO)O[C@@H]4CO)O[C@@H]3CO` [β-CD, beta-cyclodextrin], the “Half-life in 1M HCl at 60° C.” value rises from 3.0 h to 5.4 h (1.8-fold).

For `OC[C@H]1O[C@@H]2O[C@H]3[C@H](O)[C@@H](O)[C@@H](O[C@H]4[C@H](O)[C@@H](O)[C@@H](O[C@H]5[C@H](O)[C@@H](O)[C@@H](O[C@H]6[C@H](O)[C@@H](O)[C@@H](O[C@H]7[C@H](O)[C@@H](O)[C@@H](O[C@H]1[C@H](O)[C@H]2O)O[C@@H]7CO)O[C@@H]6CO)O[C@@H]5CO)O[C@@H]4CO)O[C@@H]3CO` [α-CD, alpha-cyclodextrin], the “Half-life in 1M HCl at 60° C.” value is listed as 6.2 h.
